Source: patent publication US9995734B2, “Human T cell line assay for evaluating the immunologic identity of glatiramer acetate preparations” (Mylan Inc., priority 2013, dated 2018)

Test system: Donor 3 COP T-Cell Lines
Assay: ATP proliferation assay (CellTiter Glo), Donor 3 COP T-cell lines, incl. reactivity to non-canonical GA peptides
Format: cell-based, human
Conditions: for Reactivity (proliferation), Mean: Day 54 of culture

glatiramer acetate [GMA]
response in ATP proliferation assay (165-D2C, 165-C7C, 165-C4C, Day 39, three concentrations (Table 24)): responded comparably | Reactivity (proliferation), Mean (T-cell line 165-B6C, 1 μg/mL antigen, No Antigen 2358): 3939 RLU | Mean, ATP proliferation assay (T-cell line 165-B6C, 1 μg/mL, Day 46, after 3 days): 9925 RLU | Reactivity (proliferation), Mean (T-cell line 165-B6C, 3 μg/mL antigen, No Antigen 2358): 19344 RLU | Mean, ATP proliferation assay (T-cell line 165-B6C, 3 μg/mL, Day 46, after 3 days): 38105 RLU | Reactivity (proliferation), Mean (T-cell line 165-B6C, 10 μg/mL antigen, No Antigen 2358): 29012 RLU | Mean, ATP proliferation assay (T-cell line 165-B6C, 10 μg/mL, Day 46, after 3 days): 25839 RLU | Reactivity (proliferation), Mean (T-cell line 165-B6C, 100 μg/mL antigen, No Antigen 2358): 9856 RLU | Mean, ATP proliferation assay (T-cell line 165-B6C, Day 32, 10 μg/mL): 1058 RLU | Reactivity (proliferation), Mean (T-cell line 165-B10C, 1 μg/mL antigen, No Antigen 2234): 1942 RLU | Mean, ATP proliferation assay (T-cell line 165-B10C, 1 μg/mL, Day 46, after 3 days): 5592 RLU | Reactivity (proliferation), Mean (T-cell line 165-B10C, 3 μg/mL antigen, No Antigen 2234): 2658 RLU | Mean, ATP proliferation assay (T-cell line 165-B10C, 3 μg/mL, Day 46, after 3 days): 13012 RLU | Reactivity (proliferation), Mean (T-cell line 165-B10C, 10 μg/mL antigen, No Antigen 2234): 5854 RLU | Mean, ATP proliferation assay (T-cell line 165-B10C, 10 μg/mL, Day 46, after 3 days): 19866 RLU | Reactivity (proliferation), Mean (T-cell line 165-B10C, 100 μg/mL antigen, No Antigen 2234): 6380 RLU | Proliferation (luminescent ATP assay), Mean (T-cell line 165-C4C, 1 μg/mL antigen, Day 66 of culture, 0 μg/mL 1881): 2668 | Mean, ATP proliferation assay (T-cell line 165-C4C, 1 μg/mL, Day 39): 9367 | Proliferation (luminescent ATP assay), Mean (T-cell line 165-C4C, 3 μg/mL antigen, Day 66 of culture, 0 μg/mL 1881): 16108 | Mean, ATP proliferation assay (T-cell line 165-C4C, 3 μg/mL, Day 39): 26279 | Proliferation (luminescent ATP assay), Mean (T-cell line 165-C4C, 10 μg/mL antigen, Day 66 of culture, 0 μg/mL 1881): 88509 | Mean, ATP proliferation assay (T-cell line 165-C4C, 10 μg/mL, Day 39): 31014 | Mean, ATP proliferation assay (T-cell line 165-C7C, 1 μg/mL, Day 39): 3307 | Proliferation (luminescent ATP assay), Mean (T-cell line 165-C7C, 1.25 μg/mL antigen, autologous B-LCL): 610 RLU | Proliferation (luminescent ATP assay), Mean (T-cell line 165-C7C, 2.5 μg/mL antigen, autologous B-LCL): 2699 RLU | Mean, ATP proliferation assay (T-cell line 165-C7C, 3 μg/mL, Day 39): 12832 | Proliferation (luminescent ATP assay), Mean (T-cell line 165-C7C, 5 μg/mL antigen, autologous B-LCL): 22588 RLU | Proliferation (luminescent ATP assay), Mean (T-cell line 165-C7C, 10 μg/mL antigen, autologous B-LCL): 24029 RLU | Mean, ATP proliferation assay (T-cell line 165-C7C, 10 μg/mL, Day 39): 42739 | Mean, ATP proliferation assay (T-cell line 165-D2C, 1 μg/mL, Day 39): 3881 | Mean, ATP proliferation assay (T-cell line 165-D2C, 3 μg/mL, Day 39): 7503 | Mean, ATP proliferation assay (T-cell line 165-D2C, 10 μg/mL, Day 39): 13253 | Reactivity (proliferation), Mean (T-cell line 165-D3C, 1 μg/mL antigen, No Antigen 8319): 24131 RLU | Mean, ATP proliferation assay (T-cell line 165-D3C, 1 μg/mL, Day 46, after 3 days): 61535 RLU | Reactivity (proliferation), Mean (T-cell line 165-D3C, 3 μg/mL antigen, No Antigen 8319): 58814 RLU | Mean, ATP proliferation assay (T-cell line 165-D3C, 3 μg/mL, Day 46, after 3 days): 80112 RLU | Reactivity (proliferation), Mean (T-cell line 165-D3C, 10 μg/mL antigen, No Antigen 8319): 57024 RLU | Mean, ATP proliferation assay (T-cell line 165-D3C, 10 μg/mL, Day 46, after 3 days): 107772 RLU | Reactivity (proliferation), Mean (T-cell line 165-D3C, 100 μg/mL antigen, No Antigen 8319): 14205 RLU | Mean, ATP proliferation assay (T-cell line 165-D3C, Day 32, 10 μg/mL): 3436 RLU | Reactivity (proliferation), Mean (T-cell line 165-D11C, 1 μg/mL antigen, No Antigen 4571): 3636 RLU | Mean, ATP proliferation assay (T-cell line 165-D11C, 1 μg/mL, Day 46, after 3 days): 15655 RLU | Reactivity (proliferation), Mean (T-cell line 165-D11C, 3 μg/mL antigen, No Antigen 4571): 6578 RLU | Mean, ATP proliferation assay (T-cell line 165-D11C, 3 μg/mL, Day 46, after 3 days): 17777 RLU | Reactivity (proliferation), Mean (T-cell line 165-D11C, 10 μg/mL antigen, No Antigen 4571): 16338 RLU | Mean, ATP proliferation assay (T-cell line 165-D11C, 10 μg/mL, Day 46, after 3 days): 56609 RLU | Reactivity (proliferation), Mean (T-cell line 165-D11C, 100 μg/mL antigen, No Antigen 4571): 14560 RLU | Mean, ATP proliferation assay (T-cell line 165-D11C, Day 32, 10 μg/mL): 416 RLU | Reactivity (proliferation), Mean (T-cell line 165-E3C, 1 μg/mL antigen, No Antigen 2797): 2954 RLU | Mean, ATP proliferation assay (T-cell line 165-E3C, 1 μg/mL, Day 46, after 3 days): 10662 RLU | Reactivity (proliferation), Mean (T-cell line 165-E3C, 3 μg/mL antigen, No Antigen 2797): 17065 RLU
